k3/Ki, IC50 and Ki data for 18 compounds are collected here from ChEMBL document CHEMBL1136305, “Structure-activity relationships within a series of caspase inhibitors: effect of leaving group modifications” (Bioorg Med Chem Lett, 2003).

The term pIC50 denotes −log10 of the IC50, conventionally taken in molar units. Low readings indicate a high IC50, high ones a low IC50. In general, pKi refers to −log10 of the Ki, conventionally taken in molar units. Read a low pKi as a high Ki. By IC50 is commonly meant the point on the concentration scale where inhibition reaches its midpoint. A low value points to higher potency.

The structures appear in SMILES notation. pIC50, pKi: −log10 of the molar value.

The target in one test is T1, Caspase-1 (Mus musculus) (UniProt P29452).
T1 sequence (whole entry): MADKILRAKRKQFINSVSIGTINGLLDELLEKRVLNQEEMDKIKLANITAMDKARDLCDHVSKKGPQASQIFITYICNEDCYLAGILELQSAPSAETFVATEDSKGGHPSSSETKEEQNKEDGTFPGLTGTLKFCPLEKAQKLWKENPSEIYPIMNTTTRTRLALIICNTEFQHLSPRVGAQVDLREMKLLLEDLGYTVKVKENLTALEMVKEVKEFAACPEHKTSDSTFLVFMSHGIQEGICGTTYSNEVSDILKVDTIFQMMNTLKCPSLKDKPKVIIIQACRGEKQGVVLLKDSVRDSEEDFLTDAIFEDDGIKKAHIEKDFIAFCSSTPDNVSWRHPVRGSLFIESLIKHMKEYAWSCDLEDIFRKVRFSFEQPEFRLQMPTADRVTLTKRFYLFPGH
The experiment in a line: Inhibitory activity against murine caspase-1.

A further test has as its target Caspase-8 (Homo sapiens) (UniProt Q14790). Nature of the test: Inhibitory activity against caspase-8 (Csp-8).
Test [1] concerns the target T2, Caspase-6 (Homo sapiens) (UniProt P55212).
T2 sequence (whole entry): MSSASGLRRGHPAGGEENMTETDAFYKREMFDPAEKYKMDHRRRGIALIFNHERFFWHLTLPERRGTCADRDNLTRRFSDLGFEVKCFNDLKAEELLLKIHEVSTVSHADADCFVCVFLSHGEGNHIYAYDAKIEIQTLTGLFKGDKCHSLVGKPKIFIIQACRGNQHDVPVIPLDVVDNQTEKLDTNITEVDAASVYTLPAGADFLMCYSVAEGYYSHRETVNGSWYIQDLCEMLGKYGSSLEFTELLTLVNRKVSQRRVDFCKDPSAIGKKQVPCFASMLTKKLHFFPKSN
The experiment in a line: Inhibitory activity against Caspase-6 (Csp-6). Type of test: functional.

The species entered for another test is Homo sapiens. The experiment in a line: Cellular assay in an inflammation model measuring IL1-beta secretion from isolated human monocytes induced with Staph A. Type of test: functional.
A further test has as its system Jurkat. The experiment in a line: Cellular assay in a Fas-induced model of apoptosis in Jurkat cells. Type of test: functional, cell-based. Conditions: Homo sapiens.
A short description of test [2]: (§1) Cellular assay in a model of neuronal apoptosis involving cortical neurons exposed to concanavalin A. The class given is functional.
Another test deals with T3, Caspase-3 (Homo sapiens) (UniProt P42574).
T3 sequence (whole entry): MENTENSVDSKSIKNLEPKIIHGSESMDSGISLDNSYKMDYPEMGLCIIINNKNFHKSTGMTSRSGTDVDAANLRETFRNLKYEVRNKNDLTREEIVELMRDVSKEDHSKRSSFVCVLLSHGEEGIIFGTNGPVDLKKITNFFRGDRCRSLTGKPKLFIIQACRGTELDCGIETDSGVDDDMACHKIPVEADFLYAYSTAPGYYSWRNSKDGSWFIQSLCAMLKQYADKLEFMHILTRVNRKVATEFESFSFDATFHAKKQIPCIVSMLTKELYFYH
Nature of the test: Inhibitory activity against caspase-3 (Csp-3).

A further test deals with T4, Caspase-3 (Homo sapiens, UniProt P42574).
T4 sequence (P42574 whole entry): T3 sequence (whole entry)
Nature of the test: Binding affinity against caspase-3 (Csp-3).

For a further test, the target named is T5, Caspase-1 (Mus musculus, UniProt P29452).
T5 sequence (P29452 whole entry): T1 sequence (whole entry)
Nature of the test: Binding affinity against Murine caspase-1 (mCsp-1).

Test [3] deals with T2, Caspase-6 (Homo sapiens). The experiment in a line: Inhibitory activity against caspase-6 (Csp-6).
Test [4] in a line: as §1. Type of test: functional. This is another data set of the same source.

Caspase-8 (Homo sapiens), sequence (Q14790 217-374 limits assumed): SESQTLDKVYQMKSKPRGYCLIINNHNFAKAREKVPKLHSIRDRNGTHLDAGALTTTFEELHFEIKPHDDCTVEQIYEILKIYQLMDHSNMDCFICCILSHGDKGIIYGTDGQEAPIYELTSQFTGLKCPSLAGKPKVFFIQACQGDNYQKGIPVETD
Caspase-8 (Homo sapiens), sequence (Q14790 385-479 limits assumed): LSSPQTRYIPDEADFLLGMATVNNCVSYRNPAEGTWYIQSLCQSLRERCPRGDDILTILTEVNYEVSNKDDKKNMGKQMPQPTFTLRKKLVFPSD

With `CC(C)[C@H](NC(=O)COc1cccc2ccccc12)C(=O)N[C@@H](CC(=O)O)C(=O)CF`, the k3/Ki on Caspase-1 (Mus musculus) stood at 129000 M⁻¹ s⁻¹; at Caspase-8 (Homo sapiens), 71700 M⁻¹ s⁻¹; on Caspase-6 (Homo sapiens) [1] it was 36800 M⁻¹ s⁻¹; at Caspase-3 (Homo sapiens), 207000 M⁻¹ s⁻¹. Also, the values for the pIC50 (in the test filed under Homo sapiens; in the test on Jurkat; in [2]) were 6.02, 6.62 and 5.52, respectively.

Take `CC(C)[C@H](NC(=O)COc1cccc2ccccc12)C(=O)N[C@@H](CC(=O)O)C(=O)COc1cccc2ccccc12`: the figures for the k3/Ki at Caspase-1 (Mus musculus) and on Caspase-3 (Homo sapiens) were 354000 M⁻¹ s⁻¹ and 1.96e+06 M⁻¹ s⁻¹, respectively. Also, the pIC50 was 4.72 in the test listed under Homo sapiens, below 4.00 in the test with Jurkat and 5.58 in test [2]. Further, the values for the negative logarithm of the Ki (pKi) at Caspase-3 and at Caspase-1 were 8.15 and 7.15, respectively.

Regarding `CC(C)[C@H](NC(=O)COc1cccc2ccccc12)C(=O)N[C@@H](CC(=O)O)C(=O)COc1cccc(F)c1`, the k3/Ki was found to be 2730 M⁻¹ s⁻¹ at Caspase-1 (Mus musculus), 48 M⁻¹ s⁻¹ on Caspase-6 (Homo sapiens) [3], 461 M⁻¹ s⁻¹ at Caspase-8 (Homo sapiens) and 17800 M⁻¹ s⁻¹ at Caspase-3 (Homo sapiens). Further, the pIC50 in the test filed under Homo sapiens is 4.92; with Jurkat, below 4.00; in test [2], below 4.30.

Take `CC(C)[C@H](NC(=O)COc1cccc2ccccc12)C(=O)N[C@@H](CC(=O)O)C(=O)COc1cccc(C(F)(F)F)c1F`: the k3/Ki amounted to 7220 M⁻¹ s⁻¹ on Caspase-1 (Mus musculus), 683 M⁻¹ s⁻¹ at Caspase-6 (Homo sapiens) [3], 1030 M⁻¹ s⁻¹ on Caspase-8 (Homo sapiens) and 33900 M⁻¹ s⁻¹ at Caspase-3 (Homo sapiens). Further, the pIC50 is 4.74 in the test filed under Homo sapiens, 4.30 in the test with Jurkat and 5.43 in test [2].

On to `CC(C)[C@H](NC(=O)COc1cccc2ccccc12)C(=O)N[C@@H](CC(=O)O)C(=O)COc1ccc(-c2ccccc2)cc1`, for which the k3/Ki at Caspase-1 (Mus musculus) was found to be 1550 M⁻¹ s⁻¹; on Caspase-6 (Homo sapiens) [3], 270 M⁻¹ s⁻¹; on Caspase-8 (Homo sapiens) it was 1310 M⁻¹ s⁻¹; at Caspase-3 (Homo sapiens) it was 9990 M⁻¹ s⁻¹. Besides, the negative-log IC50 (pIC50) is 4.41 in the test filed under Homo sapiens, 4.06 with Jurkat and below 4.30 in [2]. For the same compound, the values for the pKi on Caspase-3 and on Caspase-1 were 7.00 and 5.57, respectively.

For `CC(C)[C@H](NC(=O)COc1cccc2ccccc12)C(=O)N[C@@H](CC(=O)O)C(=O)COc1ccc(C(F)(F)F)cc1`, the k3/Ki at Caspase-1 (Mus musculus) was found to be 2580 M⁻¹ s⁻¹; at Caspase-6 (Homo sapiens) [3], 77 M⁻¹ s⁻¹; at Caspase-8 (Homo sapiens), 196 M⁻¹ s⁻¹; at Caspase-3 (Homo sapiens), 13200 M⁻¹ s⁻¹. Moreover, the pIC50 in the test filed under Homo sapiens was 4.91; with Jurkat, below 4.00; in test [2], below 4.30.

Turning to `CC(C)[C@H](NC(=O)COc1cccc2ccccc12)C(=O)N[C@@H](CC(=O)O)C(=O)COc1ccc2ccccc2c1`, the values for the k3/Ki at Caspase-1 (Mus musculus) and at Caspase-3 (Homo sapiens) were 263 M⁻¹ s⁻¹ and 7520 M⁻¹ s⁻¹, respectively. Besides, the pIC50 in the test filed under Homo sapiens is 4.80; with Jurkat, below 4.00; in test [2] it was below 4.30. In addition, the figures for the negative logarithm of the Ki (pKi) on Caspase-3 and at Caspase-1 were 7.05 and 5.50, respectively.

`CC(C)[C@H](NC(=O)COc1cccc2ccccc12)C(=O)N[C@@H](CC(=O)O)C(=O)COc1ccc([N+](=O)[O-])cc1`: the k3/Ki on Caspase-1 (Mus musculus) was 6130 M⁻¹ s⁻¹; on Caspase-6 (Homo sapiens) [3], 117 M⁻¹ s⁻¹; at Caspase-8 (Homo sapiens), 137 M⁻¹ s⁻¹; on Caspase-3 (Homo sapiens), 8400 M⁻¹ s⁻¹. In addition, the figures for the pIC50 (in the test filed under Homo sapiens; with Jurkat; in test [2]) were 4.64, below 4.00 and 4.87, respectively.

`CC(C)[C@H](NC(=O)COc1cccc2ccccc12)C(=O)N[C@@H](CC(=O)O)C(=O)COc1ccc([N+](=O)[O-])cc1F`: the k3/Ki came to 12300 M⁻¹ s⁻¹ at Caspase-1 (Mus musculus), 1770 M⁻¹ s⁻¹ at Caspase-6 (Homo sapiens) [3], 1850 M⁻¹ s⁻¹ on Caspase-8 (Homo sapiens) and 36500 M⁻¹ s⁻¹ on Caspase-3 (Homo sapiens). Further, the values for the pIC50 (in the test listed under Homo sapiens; in the test on Jurkat; in test [2]) were 4.80, 4.52 and 5.21, respectively.

Regarding `CC(C)[C@H](NC(=O)COc1cccc2ccccc12)C(=O)N[C@@H](CC(=O)O)C(=O)COc1cc(F)c(F)cc1F`, the k3/Ki worked out at 11400 M⁻¹ s⁻¹ on Caspase-1 (Mus musculus), 634 M⁻¹ s⁻¹ at Caspase-6 (Homo sapiens) [3], 668 M⁻¹ s⁻¹ on Caspase-8 (Homo sapiens) and 24400 M⁻¹ s⁻¹ at Caspase-3 (Homo sapiens). In addition, the pIC50 in the test listed under Homo sapiens was 4.78; with Jurkat it was 4.41; in [2] it was 5.38.

On to `CC(C)[C@H](NC(=O)COc1cccc2ccccc12)C(=O)N[C@@H](CC(=O)O)C(=O)COc1c(F)cc(F)cc1F`, for which the k3/Ki on Caspase-1 (Mus musculus) amounted to 20700 M⁻¹ s⁻¹; on Caspase-6 (Homo sapiens) [3], 5140 M⁻¹ s⁻¹; on Caspase-8 (Homo sapiens), 9080 M⁻¹ s⁻¹; on Caspase-3 (Homo sapiens), 114000 M⁻¹ s⁻¹. Besides, the values for the negative-log IC50 (pIC50) (in the test filed under Homo sapiens; in the test with Jurkat; in test [2]) were 4.83, 5.16 and 5.63, respectively.

As for `CC(C)[C@H](NC(=O)COc1cccc2ccccc12)C(=O)N[C@@H](CC(=O)O)C(=O)COc1ccc(C#N)cc1`, the k3/Ki on Caspase-1 (Mus musculus) was 3720 M⁻¹ s⁻¹; at Caspase-6 (Homo sapiens) [3], 46 M⁻¹ s⁻¹; at Caspase-8 (Homo sapiens), 48 M⁻¹ s⁻¹; on Caspase-3 (Homo sapiens), 10200 M⁻¹ s⁻¹. Moreover, the figures for the pIC50 (in the test filed under Homo sapiens; in the test on Jurkat; in test [2]) were 4.57, below 4.00 and below 4.30, respectively.

For `CC(C)[C@H](NC(=O)COc1cccc2ccccc12)C(=O)N[C@@H](CC(=O)O)C(=O)COc1ccccc1`, the k3/Ki turned out to be 3630 M⁻¹ s⁻¹ at Caspase-1 (Mus musculus), 2400 M⁻¹ s⁻¹ at Caspase-6 (Homo sapiens) [3], 4260 M⁻¹ s⁻¹ at Caspase-8 (Homo sapiens) and 19200 M⁻¹ s⁻¹ on Caspase-3 (Homo sapiens). Further, the IC50 in [4] came out at 38 µM. Further, the figures for the pIC50 in the test listed under Homo sapiens and in the test on Jurkat were 4.95 and 4.86, respectively.

For `CC(C)[C@H](NC(=O)COc1cccc2ccccc12)C(=O)N[C@@H](CC(=O)O)C(=O)COC(=O)c1c(Cl)cccc1Cl`, the k3/Ki turned out to be 52100 M⁻¹ s⁻¹ at Caspase-1 (Mus musculus), 56900 M⁻¹ s⁻¹ at Caspase-6 (Homo sapiens) [3], 17000 M⁻¹ s⁻¹ on Caspase-8 (Homo sapiens) and 725000 M⁻¹ s⁻¹ at Caspase-3 (Homo sapiens). The pIC50 was 4.94 in the test filed under Homo sapiens, 4.97 with Jurkat and 5.67 in test [2].

Consider `CC(C)[C@H](NC(=O)COc1cccc2ccccc12)C(=O)N[C@@H](CC(=O)O)C(=O)COc1c(F)cccc1F`, for which the k3/Ki at Caspase-1 (Mus musculus) was determined as 53900 M⁻¹ s⁻¹; on Caspase-6 (Homo sapiens) [3], 9980 M⁻¹ s⁻¹; at Caspase-8 (Homo sapiens), 9080 M⁻¹ s⁻¹; on Caspase-3 (Homo sapiens), 200000 M⁻¹ s⁻¹. Moreover, the pIC50 in the test filed under Homo sapiens is below 4.00; in the test with Jurkat it was 5.69; in test [2], 5.62.

Take `CC(C)[C@H](NC(=O)COc1cccc2ccccc12)C(=O)N[C@@H](CC(=O)O)C(=O)COc1ccccc1[N+](=O)[O-]`: the k3/Ki on Caspase-1 (Mus musculus) worked out at 23500 M⁻¹ s⁻¹; on Caspase-6 (Homo sapiens) [3] it was 10700 M⁻¹ s⁻¹; on Caspase-8 (Homo sapiens), 1810 M⁻¹ s⁻¹; at Caspase-3 (Homo sapiens), 73000 M⁻¹ s⁻¹. Moreover, the pIC50 was 4.56 in the test listed under Homo sapiens, below 4.00 in the test with Jurkat and 5.23 in [2].

In the case of `CC(C)[C@H](NC(=O)COc1cccc2ccccc12)C(=O)N[C@@H](CC(=O)O)C(=O)COc1ccccc1C(F)(F)F`, the k3/Ki stood at 5630 M⁻¹ s⁻¹ on Caspase-1 (Mus musculus), 494 M⁻¹ s⁻¹ on Caspase-6 (Homo sapiens) [3], 75 M⁻¹ s⁻¹ on Caspase-8 (Homo sapiens) and 20000 M⁻¹ s⁻¹ on Caspase-3 (Homo sapiens). The pIC50 was 4.76 in the test filed under Homo sapiens, below 4.00 with Jurkat and below 4.30 in [2].

As for `CC(C)[C@H](NC(=O)COc1cccc2ccccc12)C(=O)N[C@@H](CC(=O)O)C(=O)COc1ccc(F)c(F)c1`, the k3/Ki came to 1620 M⁻¹ s⁻¹ on Caspase-1 (Mus musculus), 86 M⁻¹ s⁻¹ on Caspase-6 (Homo sapiens) [3], 117 M⁻¹ s⁻¹ on Caspase-8 (Homo sapiens) and 6460 M⁻¹ s⁻¹ on Caspase-3 (Homo sapiens). Moreover, the pIC50 in the test listed under Homo sapiens was 4.79; in the test with Jurkat, below 4.00; in test [2], 4.77.
